± gives the expanded uncertainty stated by the source.
Experiments:
[1] = refractive index (Na D-line) (dimensionless); details: 101.33 kPa, Liquid, Standard Abbe refractometry
[2] = for surface tension liquid-gas: Maximal bubble pressure; for mass density: 101.33 kPa, Liquid, Vibrating tube method

CCC[n+]1ccccc1.N#C[N-]C#N [1-propylpyridinium dicyanamide]
Details	mass density, [2] [kg/m3]	refractive index, [1]	surface tension liquid-gas, [2] [mN/m]
303.15 K	1086.92 ± 4.1	1.539 ± 0.006	57.7 ± 0.8
308.15 K	1083.79 ± 4.1	1.5374 ± 0.006	57.4 ± 0.8
313.15 K	1080.69 ± 4.1	1.5356 ± 0.006	57 ± 0.8
318.15 K	1077.6 ± 4.1	1.5342 ± 0.006	56.7 ± 0.8
323.15 K	1074.52 ± 4.1	1.5329 ± 0.006	56.4 ± 0.8
328.15 K	1071.46 ± 4.1	1.5312 ± 0.006	56.1 ± 0.8
333.15 K	1068.42 ± 4.1	1.5293 ± 0.006	55.7 ± 0.8
338.15 K	1065.4 ± 4.1	1.5276 ± 0.006	55.4 ± 0.8

CCCC[n+]1ccccc1.N#C[N-]C#N [1-butylpyridinium dicyanamide]
Details	mass density, [2] [kg/m3]	refractive index, [1]	surface tension liquid-gas, [2] [mN/m]
303.15 K	1065.76 ± 2	1.5325 ± 0.003	55.5 ± 0.5
308.15 K	1062.7 ± 2	1.5309 ± 0.003	55.2 ± 0.5
313.15 K	1059.66 ± 2	1.5285 ± 0.003	54.9 ± 0.5
318.15 K	1056.64 ± 2	1.527 ± 0.003	54.5 ± 0.5
323.15 K	1053.63 ± 2	1.5253 ± 0.003	54.2 ± 0.5
328.15 K	1050.63 ± 2	1.5237 ± 0.003	53.9 ± 0.5
333.15 K	1047.66 ± 2	1.5217 ± 0.003	53.6 ± 0.5
338.15 K	1044.69 ± 2	1.5202 ± 0.003	53.4 ± 0.5

CCCCC[n+]1ccccc1.N#C[N-]C#N [1-pentylpyridinium dicyanamide]
Details	mass density, [2] [kg/m3]	refractive index, [1]	surface tension liquid-gas, [2] [mN/m]
303.15 K	1050.05 ± 2	1.5287 ± 0.003	53 ± 0.5
308.15 K	1047.03 ± 2	1.5272 ± 0.003	52.7 ± 0.5
313.15 K	1044.03 ± 2	1.5258 ± 0.003	52.4 ± 0.5
318.15 K	1041.04 ± 2	1.5243 ± 0.003	52.1 ± 0.5
323.15 K	1038.07 ± 2	1.523 ± 0.003	51.7 ± 0.5
328.15 K	1035.11 ± 2	1.5212 ± 0.003	51.4 ± 0.5
333.15 K	1032.17 ± 2	1.5194 ± 0.003	51.2 ± 0.5
338.15 K	1029.24 ± 2	1.5179 ± 0.003	51 ± 0.5

From the NIST ThermoML archive (doi:10.1016/j.jct.2015.11.023)
